The test system of data set [1] is totally blind subjects diagnosed with non-24. Particulars: cited from earlier work.
Data set [2] can be described thus: Thermogravimetric analysis (TGA), thermal stability. Type of data set: physicochemical. Conditions: for thermal stability: result in words. As for the experimental part:
Thermogravimetric Analysis (TGA)
TGA was performed on a TA instruments SDT Q600 thermogravimetric analyzer. The samples were heated over the temperature range room temperature of 30-365° C. at a constant heating rate of 10° C./min. The samples were purged with a stream of flowing nitrogen at 120 ml/min throughout the experiment.

Data set [3] can be described thus: Solubility in water at 37° C. (equilibrium solubility, 72 hours, absorbance at 281 nm). Type of data set: physicochemical. Particulars: balanced for 72 hours. The method, then: Example 22 Solubility in Water at 37° C.
Move 25 ml water into a 50 ml eggplant bottle separately, add crystal form I and crystal form II Tasimelteon separately, stir in a constant temperature oil bath to balance for 72 hours, and then filtrate by 0.45 microporous membrane. The filtrate is diluted by water. The water solubilities of crystal form I and crystal form II at 37° C. were determined by calculating each sample concentration of its saturated solution determined through measuring absorbance at λmax (281 nm). Standard curve method is used to calculate the equilibrium solubility.

The nature of data set [4]: Intrinsic dissolution studies in water. Type of data set: physicochemical. Conditions: 37° C., 150 r.p.m., compressed disk. The method, then:
Example 23 Intrinsic Dissolution Studies
200 mg of crystal form I or crystal form II was taken in the intrinsic attachment and compressed to a 1.33 cm^2 and 0.1 cm thick of disk using a hydraulic press at a pressure of 9 MPa for 60 s. The intrinsic attachment was placed in a jar of 100 mL of water to 37° C. and rotated at 150 r.p.m. 1 milliliter of the aliquot each is collected at specific time intervals and blank medium of the same volume and temperature is added, and the absorbance at max (281 nm) is measured, and the cumulative dissolution rate is calculated to plot the concentration-time standard curves of the respective compounds.

≈ marks a conversion by molar mass, not a printed value. Entries after “also recorded” stand apart in the source; their conditions may differ.

As to `CCC(=O)NC[C@@H]1C[C@H]1c1cccc2c1CCO2` [Tasimelteon, (1R-2R)—N-[2-(2,3-dihydrobenzofuran-4-yl)cyclopropylmethyl]propanamide], in data set [1] (physiologic monitoring, compared with placebo), the “proportion of individuals becoming entrained to the 24-hour cycle” value is listed as “higher proportion of individuals becoming entrained to the 24-hour cycle compared with placebo”. For the same compound, the “efficacy on nighttime wakefulness and daytime napping” value in data set [1] (totally blind subjects diagnosed with non-24) is “reducing both nighttime wakefulness and daytime napping”.
For the compound `CCC(=O)NC[C@@H]1C[C@H]1c1cccc2c1CCO2` [crystal form I, (1R-2R)—N-[2-(2,3-dihydrobenzofuran-4-yl)cyclopropylmethyl]propanamide], the thermal stability entry in data set [2] was “good thermal stability”. For the same compound, the solubility (in general, how much of the substance goes into solution per volume) at 72 h in data set [3] (37 °C, thermodynamic from solid) turned out to be 81 µg/mL (≈ 330 µM). Besides, the intrinsic dissolution rate entry in data set [4] (FIG. 9) is recorded as “high”; in data set [4] (FIG. 9, listed as form I), “good dissolution rate”.
On to `CCC(=O)NC[C@@H]1C[C@H]1c1cccc2c1CCO2` [crystal form II, (1R-2R)—N-[2-(2,3-dihydrobenzofuran-4-yl)cyclopropylmethyl]propanamide], for which, in data set [2] (heating rate of 10° C./min, nitrogen), the “decomposition temperature (TGA)” value is “approximately 200 °C”. In addition, the thermal stability result in data set [2] is reported as “good thermal stability”. Besides, in data set [3], the water solubility was 104 µg/mL (≈ 424 µM). Also, the intrinsic dissolution rate entry in data set [4] (FIG. 9) is reported as “high in water, especially for crystal form II compared to crystal form I; also recorded: good dissolution rate, especially for crystal form II compared to form I”.
